# Reference: patent US20220213092A1, “BICYCLIC PYRAZOLE BRUTON'S TYROSINE KINASE INHIBITORS” (AbbVie Inc., priority 2020, published 2022)
# pIC50: −log10 of the molar value. Where two headings read alike, the source gives them in different places.
# Tests used:
# TEC = biological target: T1, TEC (Homo sapiens, UniProt P42680); experiment: Other kinase MSA: TEC; assay type: biochemical
# T1 sequence (P42680 1-631): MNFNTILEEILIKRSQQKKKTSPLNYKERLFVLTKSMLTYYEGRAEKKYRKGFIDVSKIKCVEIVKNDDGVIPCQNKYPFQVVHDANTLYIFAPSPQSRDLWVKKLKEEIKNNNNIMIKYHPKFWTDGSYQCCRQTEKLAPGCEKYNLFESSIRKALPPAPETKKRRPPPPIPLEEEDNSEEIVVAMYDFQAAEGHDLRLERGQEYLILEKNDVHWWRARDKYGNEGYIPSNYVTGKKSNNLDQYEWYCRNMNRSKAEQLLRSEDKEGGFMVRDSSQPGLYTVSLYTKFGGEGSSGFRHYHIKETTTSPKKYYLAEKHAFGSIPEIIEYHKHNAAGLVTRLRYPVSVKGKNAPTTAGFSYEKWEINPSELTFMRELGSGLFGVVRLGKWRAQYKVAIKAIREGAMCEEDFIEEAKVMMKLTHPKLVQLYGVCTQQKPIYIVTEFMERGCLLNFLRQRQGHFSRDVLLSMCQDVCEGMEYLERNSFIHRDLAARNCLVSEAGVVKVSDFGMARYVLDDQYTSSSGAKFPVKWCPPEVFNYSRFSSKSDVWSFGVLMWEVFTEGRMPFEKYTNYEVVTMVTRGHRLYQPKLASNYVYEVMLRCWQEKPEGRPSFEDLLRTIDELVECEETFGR
# Method: (§1) Kinase activity, unless otherwise indicated, was measured in vitro using an electrophoretic mobility shift assay (MSA). The phosphorylation of a peptide substrate by BTK and other kinases was measured. The kinase reactions were assembled in a total volume of 25 μL per well in 384 well plates. The following was added to each well: compound buffer (or control); enzyme buffer; and substrate buffer, as further described below. […]
# (§2) Enzyme and compound/inhibitor were optionally pre-incubated. […] The kinase activity for the kinases in Table 3 were measured at 3 hours incubation time, except that in the case of MAP2K1 and MAP2K2 assay, pre-activation of ERK was done for 30 min with 6 μM of ATP, and then the detection of activated ERK in the presence of compounds was done after 60 minutes of incubation.
# (§3) The terminated reactions were analyzed using a 12 channel LABCHIP® 3000 microfluidic detection instrument (available from Caliper Life Sciences, Waltham, Mass.). […] As substrate and product peptides were separated, two peaks of fluorescence were observed. Change in the relative fluorescence intensity of the substrate and product peaks was the parameter measured, reflecting enzyme activity. […] Capillary electrophoregrams (RDA acquisition files) were analyzed using HTS Well Analyzer software (available from Caliper Life Sciences, Waltham, Mass.). […]
# MAP2K2 = MAP2K2 (Homo sapiens, UniProt P36507); experiment: Other kinase MSA: MAP2K2; assay type: biochemical; conditions: 30 μM ATP, ERKtide substrate; pre-activation of ERK 30 min, detection after 60 minutes; read-out: IC50, Enzyme MAP2K2
# Method: as §1, §2, §3
# Chain of MAP2K2 (P36507 whole entry, species assumed): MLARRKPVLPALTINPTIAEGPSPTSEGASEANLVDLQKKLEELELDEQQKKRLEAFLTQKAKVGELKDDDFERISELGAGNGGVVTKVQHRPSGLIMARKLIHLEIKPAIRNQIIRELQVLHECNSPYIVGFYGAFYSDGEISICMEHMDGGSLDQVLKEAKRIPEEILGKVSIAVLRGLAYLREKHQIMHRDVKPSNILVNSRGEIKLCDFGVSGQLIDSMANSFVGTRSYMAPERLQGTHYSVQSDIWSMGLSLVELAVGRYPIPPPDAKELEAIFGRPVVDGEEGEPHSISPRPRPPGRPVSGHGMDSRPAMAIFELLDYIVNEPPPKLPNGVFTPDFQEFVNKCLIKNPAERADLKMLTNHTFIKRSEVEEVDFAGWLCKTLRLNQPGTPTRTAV
"pIC50 (TEC; 50 μM ATP, SRCtide substrate, 3 hours, read-out: IC50, Enzyme TEC)",pIC50 (MAP2K2),pIC50 (TEC),SMILES
9.10,7.12,–,"C=CC(=O)N1CCC([C@@H]2CCNc3c(C(N)=O)c(-c4ccc(Oc5ccccc5)cc4)nn32)CC1 [Compound A, reference compound]"
–,5.11,7.83,"C=CC(=O)N1CCN([C@@H]2CCNc3c2nn(-c2ccc(Oc4ccccc4)cc2)c3C(N)=O)CC1 [Example 6, (7R)-2-(4-phenoxyphenyl)-7-[4-(prop-2-enoyl)piperazin-1-yl]-4,5,6,7-tetrahydro-2H-pyrazolo[4,3-b]pyridine-3-carboxamide]"
